Measured values: patent publication US20250186436A1 (4E Therapeutics, Inc., priority 2021, published 2025)
Values joined by “and” are separate entries in the source; they are usually repeats but may differ in a detail not shown here. Identical values can stand only once. Like-named read-outs stand apart in the source and are kept apart here.

Assays:
[1] = molecular target: T1, recombinant full length human kinase MNK2 (Homo sapiens, UniProt Q9HBH9); assay: MNK2 radiometric kinase activity assay; type: biochemical; conditions: radiometric activity assay; read-out: MNK2
T1 construct: the recombinant full length human kinase MNK2; made in house; host or cells: insect cells
T1 sequence (Q9HBH9 whole entry): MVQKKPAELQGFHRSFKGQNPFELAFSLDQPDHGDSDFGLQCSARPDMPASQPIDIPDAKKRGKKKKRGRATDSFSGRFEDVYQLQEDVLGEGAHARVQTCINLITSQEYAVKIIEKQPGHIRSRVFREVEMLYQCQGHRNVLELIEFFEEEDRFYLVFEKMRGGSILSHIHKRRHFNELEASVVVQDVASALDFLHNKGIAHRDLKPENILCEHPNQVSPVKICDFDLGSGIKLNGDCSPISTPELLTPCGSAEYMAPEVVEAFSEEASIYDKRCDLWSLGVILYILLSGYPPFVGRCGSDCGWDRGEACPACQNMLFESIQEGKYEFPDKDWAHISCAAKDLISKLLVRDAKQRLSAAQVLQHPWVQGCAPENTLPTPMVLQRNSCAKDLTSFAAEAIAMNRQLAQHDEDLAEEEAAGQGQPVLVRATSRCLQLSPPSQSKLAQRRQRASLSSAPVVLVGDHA

[2] = PK study in CD-1 male mice with IV and PO dosing (Example 3); type: in vivo; conditions: for AUC(0-t): AUClast; for concentration at 24 h: Clast; for MRT inf: MRTinf
Procedure: Example 3: PK study of 4ET-03-053 in CD-1 male mice with IV and PO dosing
In mice, following IV administration with 1.5 mg/kg, plasma concentrations declined in a multiphasic manner with an initial concentration (Co) of 708 ng/mL and a last measurable concentration (Clast) of 5.29 ng/mL at 24 h post dose.

[3] = Plasma and brain concentrations, brain to plasma ratio in male CD1 mice (Example 3); type: in vivo; conditions: 2 h post dosing; for concentration at 2 h: male, CD1, mouse
[4] = PK study in male Sprague Dawley rats, IV 1 mg/kg and PO 10 mg/kg (Example 4); type: in vivo; conditions: for clearance: CLp; for Vd: Vss; for concentration at 24 h: plasma; for AUC(0-t): AUClast
[5] = Plasma and brain concentrations, brain to plasma ratio in SD rats 2 hr after single 10 mg/kg PO (Example 4); type: in vivo; conditions: 2 hr post single PO dose 10 mg/kg; for concentration at 2 hr: Sprague-Dawley, po
Procedure: A brain to plasma ratio of 0.096 (BP=0.096) in SD rats is observed at 2 hr following a single 10 mg/kg dose of 4ET-03-053.

[6] = test system: paclitaxel CIPN mice; assay: Conditioned Place Preference (CPP) test with chemotherapy induced peripheral neuropathy (CIPN) mice; type: in vivo
Procedure: Mice were treated over a period of 8 days with 4 injections of paclitaxel, made in ethanol and kollipher vehicle, each at 4 mg/kg for a cumulative dose of 16 mg/kg. […] 4ET-03-053 was given with pairing with the white chamber in the CPP box with the idea that pain relief in the white chamber will counteract the natural aversion mice have to areas with bright light.

[7] = test system: eIF4E phosphorylation in mouse tissues; assay: In vivo biochemical assay (Western blot) of eIF4E phosphorylation in mouse tissues; conditions: mice, PO 10 mg/kg
Procedure: […] Tissues were acutely dissected and immediately frozen. Frozen samples were later bead homogenized with protease and phosphatase inhibitor cocktails present in the homogenization buffer and then protein was quantified by Bradford assay. 20 μg of protein was run per lane on standard SDS-PAGE. Blots were probed with antibodies against p-eIF4E and total-eIF4E and imaged on a BioRad imaging system. […] However, inhibition of phosphorylation of eIF4E in the brain was not observed, as determined by Western blot analysis of brain tissue from the cortex.

[8] = PK study in male Sprague-Dawley rats dosed once per day for five days, PO 10 mg/kg, 0.5% HPMC (Example 7); type: in vivo; conditions: 0.5% HPMC suspension
[9] = male, CD-1, mouse, in vivo, iv, 1.5 mg/kg
[10] = male, CD-1, mouse, in vivo, po, 10 mg/kg
[11] = SD rats, single PO 10 mg/kg, 10% DMA/PG, individual animals, 10 mg/kg
[12] = SD rats, single PO 10 mg/kg, 10% DMA/PG, mean (n = 3)
[13] = male SD rats, 1 mg/kg IV, individual animals, 1 mg/kg
[14] = male SD rats, 1 mg/kg IV, mean (n = 3)
[15] = male, Sprague Dawley, rat, in vivo, iv, 1 mg/kg
[16] = male, Sprague-Dawley, rat, in vivo, iv, 1 mg/kg
[17] = male, Sprague-Dawley, rat, in vivo, po, 10 mg/kg
[18] = individual animals (n = 3), 10 mg/kg

Cc1cc(Nc2cc(N)ncn2)c(=O)n2c1C(=O)NC21CCC2(CC2)CC1 [4ET-03-053, 6″-((6-Aminopyrimidin-4-yl)amino)-8″-methyl-2″H-dispiro[cyclopropane-1,1′-cyclohexane-4′,3″-imidazo[1,5-a]pyridine]-1″,5″-dione]
IC50 [1]: 0.0209 µM | F ([2]; CD-1 male mice, 10 mg/kg PO, individual animals, 10 mg/kg): 75.6% | clinical observation after dosing [2, 9]: lying on side and immobile with heavy breathing for about 1 min | AUC(0-inf) ([2]; male, CD-1, mouse, in vivo, iv, 1.5 mg/kg, AUCinf): 1.53 µg·h/mL | AUC(0-t) [2, 9]: 1.3 µg·h/mL | clearance ([2]; male, CD-1, mouse, in vivo, iv, 1.5 mg/kg, CLp): 1.16 L/h/kg | concentration at 24 h [2, 9]: 0.00529 µg/mL | MRT inf [2, 9]: 4.93 h | Vd ([2]; male, CD-1, mouse, in vivo, iv, 1.5 mg/kg, Vss): 5.63 L/kg | half-life ([2]; male, CD-1, mouse, in vivo, iv, 1.5 mg/kg, t1/2): 6.17 h | AUC(0-inf) ([2]; male, CD-1, mouse, in vivo, iv, 1.5 mg/kg, total systemic exposure (AUCinf)): 1.32 µg·h/mL | Tmax [2, 10]: 0.5 h | bioavailability [2, 10]: 75% | time to mean peak plasma concentration [2, 10]: ≤ 30 min | AUC(0-inf) ([2]; male, CD-1, mouse, in vivo, po, 10 mg/kg, AUCinf): 6.67 µg·h/mL | AUC(0-t) [2, 10]: 6.42 µg·h/mL | concentration at 24 h [2, 10]: 0.0332 µg/mL | Cmax ([2]; male, CD-1, mouse, in vivo, po, 10 mg/kg, Cmax): 0.807 µg/mL | MRT inf [2, 10]: 6.7 h | half-life ([2]; male, CD-1, mouse, in vivo, po, 10 mg/kg, t1/2): 5.14 h | AUC(0-inf) ([2]; male, CD-1, mouse, in vivo, po, 10 mg/kg, total systemic exposure (AUCinf)): 6.62 µg·h/mL | clinical observation after dosing ([2]; mice, slow IV injection at 3 mg/kg, first animal): died immediately after a slow IV injection | half-life ([2]; mouse, in vivo, CD-1 male mice, 10 mg/kg PO, individual animals, read-out: t1/2 (converted)): 5.11 h | Brain Tissue Homogenate Conc. ([3]; individual animals (n = 3)): 5.89 ng/mL and 6.41 ng/mL | Plasma Conc. ([3]; individual animals (n = 3)): 0.584 µg/mL and 0.661 µg/mL | concentration at 2 h ([3]; brain tissue homogenate, individual animals (n = 3), read-out: Brain Tissue Homogenate Conc.): 0.00461 µg/mL | concentration at 2 h ([3]; brain tissue homogenate, mean, read-out: Brain Tissue Homogenate Conc., Mean): 0.00564 µg/mL | concentration at 2 h ([3]; brain tissue, read-out: Brain Mean Tissue): 22.5 ng/g | concentration at 2 h ([3]; plasma, individual animals (n = 3), read-out: Plasma Conc.): 0.488 µg/mL | concentration at 2 h ([3]; plasma, mean, read-out: Plasma Conc., Mean): 0.578 µg/mL | Kp at 2 h ([3]; mouse, brain/plasma, read-out: Mean Tissue/Plasma Conc. Ratio (brain to plasma ratio)): 0.039 | Tlast ([4]; SD rats, single PO 10 mg/kg, 10% DMA/PG, individual animals): 24.0 h | AUCinf/D [4, 11]: 23000 kg·h/kL and 24504 kg·h/kL and 18751 kg·h/kL | Clast [4, 11]: 2.71 µg/mL and 2.95 µg/mL | Cmax/D [4, 11]: 1440 kg/kL and 1960 kg/kL and 1840 kg/kL | F [4, 11]: 44.7% and 47.6% and 36.4% | AUCinf/D [4, 12]: 22085 kg·h/kL | Cmax/D [4, 12]: 1747 kg/kL | F [4, 12]: 42.9% | Tlast [4, 12]: 24.0 h | Tlast ([4]; male SD rats, 1 mg/kg IV, individual animals): 24.0 h | AUCinf [4, 13]: 55.049 µg·h/mL and 46.264 µg·h/mL | AUCinf/D [4, 13]: 53103 kg·h/kL and 55049 kg·h/kL and 46264 kg·h/kL | Clast [4, 13]: 0.302 µg/mL and 0.336 µg/mL | Co [4, 13]: 8106 ng/mL and 7353 ng/mL and 7726 ng/mL | AUCinf/D [4, 14]: 51472 kg·h/kL | Co [4, 14]: 7728 ng/mL | Tlast [4, 14]: 24.0 h | C0 [4, 15]: 7.73 µg/mL | CLp [4, 15]: 0.0196 L/h/kg | clearance [4, 15]: 0.0198 L/h/kg | Vd [4, 15]: 0.15 L/kg | half-life ([4]; male, Sprague Dawley, rat, in vivo, iv, 1 mg/kg, t1/2): 6.36 h | AUC(0-inf) ([4]; male, Sprague Dawley, rat, in vivo, iv, 1 mg/kg, total systemic exposure (AUCinf)): 51.5 µg·h/mL | bioavailability ([4]; male, Sprague Dawley, rat, in vivo, po, 10 mg/kg): 42.9% | Cmax ([4]; male, Sprague Dawley, rat, in vivo, po, 10 mg/kg, peak plasma concentration (Cmax)): 17.5 µg/mL | half-life ([4]; male, Sprague Dawley, rat, in vivo, po, 10 mg/kg, terminal half-life (t1/2)): 9.1 h | AUC(0-inf) ([4]; male, Sprague Dawley, rat, in vivo, po, 10 mg/kg, total systemic exposure (AUCinf)): 221 µg·h/mL | concentration at 24 h ([4]; male, Sprague Dawley, rat, iv, 1 mg/kg, male SD rats, 1 mg/kg IV, at 24 h, mean (n = 3), read-out: Clast): 0.35 µg/mL | concentration at 24 h ([4]; male, Sprague Dawley, rat, po, 10 mg/kg, rats, 10 mg/kg PO, 10% DMA/PG, at 24 h, read-out: last measurable concentration): 2.62 µg/mL | AUC(0-t) [4, 16]: 51.1 µg·h/mL | clearance [4, 16]: 0.0188 L/h/kg | MRT inf ([4]; male, Sprague-Dawley, rat, in vivo, iv, 1 mg/kg, MRTinf): 7.24 h | Vd [4, 16]: 0.136 L/kg | AUC(0-inf) ([4]; male, Sprague-Dawley, rat, in vivo, iv, 1 mg/kg, male SD rats, 1 mg/kg IV, individual animals, read-out: AUCinf): 53.1 µg·h/mL | AUC(0-inf) ([4]; male, Sprague-Dawley, rat, in vivo, iv, 1 mg/kg, male SD rats, 1 mg/kg IV, mean (n = 3), read-out: AUCinf): 51.5 µg·h/mL | half-life ([4]; male, Sprague-Dawley, rat, in vivo, iv, 1 mg/kg, t1/2): 6.63 h | Tmax [4, 17]: 0.5 h | AUC(0-t) [4, 17]: 194 µg·h/mL | Cmax ([4]; male, Sprague-Dawley, rat, in vivo, po, 10 mg/kg, Cmax): 14.4 µg/mL | half-life ([4]; male, Sprague-Dawley, rat, in vivo, po, 10 mg/kg, t1/2): 9.07 h | concentration at 24 h ([4]; male, Sprague-Dawley, rat, iv, 1 mg/kg, male SD rats, 1 mg/kg IV, individual animals, read-out: Clast): 0.411 µg/mL | concentration at 24 h ([4]; male, Sprague-Dawley, rat, po, 10 mg/kg, SD rats, single PO 10 mg/kg, 10% DMA/PG, individual animals, read-out: Clast): 2.21 µg/mL | concentration at 24 h ([4]; male, Sprague-Dawley, rat, po, 10 mg/kg, SD rats, single PO 10 mg/kg, 10% DMA/PG, mean (n = 3), read-out: Clast): 2.62 µg/mL | clinical observation after dosing ([4]; rats, 1 mg/kg IV): lying on side and immobile with heavy breathing for about 10 min | clinical observation after dosing ([4]; rats, 1 mg/kg IV, 1 mg/kg): The second animal died right after a slow IV injection | time to peak plasma concentration ([4]; rats, 10 mg/kg PO, 10% DMA/PG): ≤ 30 m | Brain Tissue Homogenate Conc. [5, 18]: 406 ng/mL and 323 ng/mL | Plasma Conc. [5, 18]: 16.9 µg/mL and 14.4 µg/mL | Kp at 2 h ([5]; Sprague Dawley, rat, brain/plasma, read-out: Mean Tissue/Plasma Conc. Ratio (brain to plasma ratio)): 0.096 | concentration at 2 hr ([5]; rat, brain tissue homogenate, 10 mg/kg, individual animals (n = 3), read-out: Brain Tissue Homogenate Conc.): 0.319 µg/mL | concentration at 2 hr ([5]; rat, brain tissue homogenate, 10 mg/kg, mean, read-out: Brain Tissue Homogenate Conc., Mean): 0.349 µg/mL | concentration at 2 hr ([5]; rat, brain, 10 mg/kg, read-out: Brain Mean Tissue): 1400 ng/g | concentration at 2 hr ([5]; rat, plasma, 10 mg/kg, individual animals (n = 3), read-out: Plasma Conc.): 12.2 µg/mL | concentration at 2 hr ([5]; rat, plasma, 10 mg/kg, mean, read-out: Plasma Conc., Mean): 14.5 µg/mL | CPP: time in white (drug-paired) chamber ([6]; CIPN mice (paclitaxel), 10 mg/kg): spent more time in the white chamber vs. dark chambers | CPP: effect in mice without CIPN (reward) ([6]; mice that did not have CIPN): no effect | inhibition of phosphorylation of eIF4E in the brain (cortex) [7]: not observed | inhibition of eIF4E phosphorylation in DRGs ([7]; 2 hours post dose): significant inhibition | inhibition of eIF4E phosphorylation in sciatic nerve ([7]; 2 hours post dose): significant inhibition | inhibition of eIF4E phosphorylation in spleen ([7]; 2 hours post dose): significant inhibition | MRT inf ([8]; male, Sprague-Dawley, rat, in vivo, po, 10 mg/kg, single PO 10 mg/kg dose, mean (n = 3)): 7.43 h | AUC(0-inf) ([8]; male, Sprague-Dawley, rat, in vivo, po, 10 mg/kg, single PO 10 mg/kg, read-out: total systemic exposure (AUCinf)): 272 µg·h/mL | t1/2 ([8]; single PO 10 mg/kg dose, individual animals, 10 mg/kg): 4.83 h and 5.11 h | time to peak plasma concentration ([8]; single PO 10 mg/kg): ≤ 2 h
